Experimental data taken from patent publication EP0106571A2, “Prophylactic substance or composition” (priority 1982, dated 1984).
Where two headings read alike, the source gives them in different places.

Columns and labels:
[1] = test system: MG63 Human osteogenic sarcoma cells; test: Colony formation after 7 days with two additions of fatty acid; assay type: cell-based; details: for suppressive action on proliferation and colony formation: dose series 5 to 100 µg/ml; for cell growth and colony formation: levels of supplementation above 40 µg/ml culture medium; for cells or colonies found on microscopic examination: supplementation levels between 40 and 100 µg/ml; for proliferation suppressive action: higher levels of supplementation, 80 and 100µg/ml
Protocol: MG63 Human osteogenic sarcoma cells were seeded in culture flasks as described in Examples 4 and 5. 2,000 cells were seeded in each flask. Duplicate sets of flasks were used for each of the fatty acids tested. The following fatty acids dissolved in standard growth medium were added to the cells in culture, after allowing 2 days for cell attachment, and again after a further 3 days. Each culture therefore had only 2 additions of the relevant fatty acid. The cells were stained and examined at the end of 7 days in culture: • 1. Culture medium only - control. • 2. 5, 10, 20, 40, 60, 80 and 100µg oleic acid respectively /ml culture medium. […] 5; 10, 20, 40, 60, 80 and 100µg LA respectively /ml culture medium. • 4. 5, 10, 20, 40, 60, 80 and […] ALA respectively ./ml culture. medium. • 5. 5, 10, 20, 40, 60, 80 and 100µg/ml AA respectively /ml culture medium. • 6. 5, 10, 20, 40, 60, 80 and 100µg/ml EPA respectively /ml culture medium. • ..7.

[2] = test system: Human osteogenic sarcoma cells; test: Colony growth over three weeks with fatty acids or prostaglandins, Amidoschwarz stain; assay type: cell-based; details: for colonies in supplemented cultures: 20 µg/ml of medium added every second day, 500, 1,000 and 2,000 cell density cultures
Protocol: Human osteogenic sarcoma cells were seeded into 50 ml Greiner plastic flasks and maintained exactly as explained in Example 4.
At the end of three weeks the culture flasks were stained with a 0.1% Amidoschwarz stain solution.

[3] = test system: benign bovine kidney cells (MDBK); details: for Cell count (x 10^6) + GLA Mean: MDBK, seeding density 0,3, daily GLA, n = 4
Source text: (§1) Cells: MG63. osteoid-sarcoma cells were obtained from Flow Laboratories. Oesophageal carcinoma cells were obtained from Prof. J. Alexander of the Department of Microbiology at Medunsa, South Africa. Control benign bovine kidney cells (MDBK) were from the same stock that were used in the previous examples.

[4] = test system: MG63 osteoid-sarcoma cells; details: for Cell count (x 10^6) + GLA Mean: MG63, seeding density 0,3, daily GLA, n = 4
Source text: as §1

[5] = test system: Oesophageal carcinoma cells; details: 10 µg GLA per day for six days; for Cell count (x 10^6) + GLA Mean: Oesophageal Carcinoma, seeding density 0,14, n = 4
Source text: as §1

BL6 mouse melanoma cells [6] = details: GLA 20 µg/ml daily for two weeks
Protocol: Only 20µI of the sodium carbonate vehicle was added to control flasks.
Malignant BL6 mouse melanoma cells were maintained in Griener plastic flasks (Labortechnik) containing 10% fetal calf serum (Flor Laboratories) and antibiotics. Stock cultures were refed twice weekly and were subcultured at. weekly intervals or sooner if required. The BL6 mouse melanoma cells were supplied by Dr. C. Albrecht, Department of Pharmacology, University of Stellenbosch, South Africa.
Duplicates were set up for the three densities.
The culture flasks were incubated in a humidified atmosphere of 5% C02, 95% air at 37°C. At the end of the two weeks period the culture flasks were stained using a 0.1% Amidoschwarz stain solution.

BL6 mouse melanoma cells [7] = test: cells
Protocol: (§2) Thus each culture set comprised 13 separate experiments. […] Each set of dosages was duplicated for both cell lines. Thus, a total of 280 separate cultures were used for these determinations. For statistical treatment an average value of each duplicate was used as n = I. • (i) Growth Curves Protocol: The cells were seeded in a standard growth medium (McCoys 5A medium) from stock cultures into Greiner 50 ml plastic flasks at subconfluent densities ranging from I x 10^5 cells/flask.
Plates were incubated in a 5% C02 humidified atmosphere at 37 °C. For the final 24 hours, 0.4 µCl of [6^-3H]-thymidine or I µCl of L-[methyl -^3H] -methionine (New England Nuclear, Boston, Mass) was added to each incubation mixture on the micrplate. The cells were then collected using a Skatron automatic harvester onto glass fibre reinforced resin filters. The filters were dried and dissolved in 10 ml Picofluor ^TM30 (Packard). The [6-^3H] -thymidine incorporation into DNA and the L-[methyl-^3H] -methionine incorporation into proteins was counted on a Packard Tri-Carb scintillation counter.

human hepatoma cells = test: cells; details: for inhibition at 20 µg/mL: Homo sapiens, read-out: Reduction in growth rate (%), daily GLA 20 µg/ml; for GLA supplemented cell number (x10^4) Mean: daily GLA 20 µg/ml, n = 4
Protocol: To control flasks only 20µl of the sodium carbonate vehicle was added.
Cells: Cells of the human primary carcinoma of the liver line were provided by Dr. J.J. Alexander of the Division of Virology, Department of Microbiology, Medical University of South Africa. These cells were maintained in Grenier plastic flasks in McCoys 5A medium as described in Example I.
The cells were seeded in the standard growth medium from stock cultures into Greiner 50 ml plastic flasks at subconfluent densities ranging from 2 x 10^5 to 3 x 10^5 cells per flask. […] These culture flasks were included in a humidified atmosphere of 5% CO2, 95% air at 37°. At the end of each experiment the detached, dead cells were discarded with the culture medium. The living attached cells were trypsinised and then counted using a Coulter counter. Cell viability was checked by trypan blue dye exclusion. In addition, the culture flasks were viewed and photographed daily under a Nikon diaphot inverted phase microscope.
The cells were counted after 4 days in culture.

BL6 mouse melanoma cells [8] = details: GLA doses above 7 µg/ml, single dose, 7 days, plateau of the curve
Protocol: as §2
(§3) These cultures flasks were incubated in a humidified atmosphere of 5% C02, 95% air at 37°C for 7 days. After this period cell counts and viabilities were determined, the latter by trypan blue dye exclusion.
(§4) Data Reduction and Statistical Analyses: Using the values of cell counts obtained as described above, the difference of each cell count from its control was expressed as a perecentage of the control. As the growth curves were repeated several times for each dose for both normal and cancer cells, the mean value and standard error was determined for each dose. […] For the purpose of presentation these percentage differences are expressed as the percentage reduction of growth rate (-GR%).

MDBK bovine kidney cells = details: any of the GLA doses (0.5 to 10 µg/ml), 7 days
Protocol: as §2, §3, §4

human cancer cells = test: Proliferation suppressive effect of prostaglandins (statement, no method); assay type: cell-based; details: compared with PGEI; no conditions given
[9] = 20 µg/ml of medium added every second day
[10] = 5 µg/ml of medium added every second day

Structure (SMILES): CCCCC/C=C\C/C=C\C/C=C\C/C=C\CCCC(=O)O [AA, arachidonic acid]
- suppressive action on proliferation and colony formation ([1]; 2 additions): almost equal, progressive, suppressive action
- cell growth and colony formation ([1]; 2 additions): completely suppressed
- cells or colonies found on microscopic examination [1]: Not a single cell or colony of cells could be found
- growth suppressive effect on the cancer cells in culture (summary) [2, 9]: complete growth suppressive effect
- colonies in supplemented cultures [2]: completely devoid of any colonies

Structure (SMILES): CC/C=C\C/C=C\C/C=C\CCCCCCCC(=O)O [ALA, a-linolenic acid, reference compound]
- proliferation suppressive action ([1]; 2 additions): definite proliferation suppressive action

Structure (SMILES): CCCCC/C=C\C/C=C\C/C=C\CCCCC(=O)O [GLA, gamma linolenic acid]
- suppressive action on proliferation and colony formation ([1]; 2 additions): almost equal, progressive, suppressive action
- cell growth and colony formation ([1]; 2 additions): completely suppressed
- cells or colonies found on microscopic examination [1]: Not a single cell or colony of cells could be found
- mean number of GLA supplemented cells compared with unsupplemented cells ([3]; MDBK cells, end of the seven day period): exceed
- Cell count (x 10^6) + GLA Mean ([3]; day 2): 0,43 x 10^6
- Cell count (x 10^6) + GLA Mean ([3]; day 3): 0,70 x 10^6
- Cell count (x 10^6) + GLA Mean ([3]; day 6): 1,53 x 10^6
- Cell count (x 10^6) + GLA Mean ([3]; day 7): 1,81 x 10^6
- Cell count (x 10^6) + GLA Mean ([4]; day 2): 0,19 x 10^6
- Cell count (x 10^6) + GLA Mean ([4]; day 3): 0,31 x 10^6
- Cell count (x 10^6) + GLA Mean ([4]; day 4): 0,48 x 10^6
- growth suppressive effect ([4]; MG63 cells, daily GLA supplementation, over seven days, versus untreated MG63 cells, 10080 min): 76%
- Cell count (x 10^6) + GLA Mean ([5]; day 2): 0,14 x 10^6
- Cell count (x 10^6) + GLA Mean ([5]; day 3): 0,22 x 10^6
- Cell count (x 10^6) + GLA Mean ([5]; day 4): 0,31 x 10^6
- Cell count (x 10^6) + GLA Mean ([5]; day 5): 0,68 x 10^6
- Cell count (x 10^6) + GLA Mean ([5]; day 6): 0,63 x 10^6
- Cell count (x 10^6) + GLA Mean ([5]; day 7): 1,82 x 10^6
- Cell count (x 10^6) + GLA Mean ([5]; day 8): 2.04 x 10^6
- growth suppressive effect ([5]; oesophageal carcinoma cells, end of the eight day period, 11520 min): 69%
- growth and proliferation (BL6 mouse melanoma cells [6]): completely suppressed
- colonies observed (BL6 mouse melanoma cells [6]; 500, 1,000 or 2,000 cells seeded per flask): not a single colony
- inhibition at 10 µg/mL (BL6 mouse melanoma cells [7]; read-out: reduction in methionine uptake): 58.9%
- inhibition at 10 µg/mL (BL6 mouse melanoma cells [7]; read-out: reduction in thymidine uptake): 59.1%
- growth suppressive effect on the cancer cells in culture (summary) [2, 9]: complete growth suppressive effect
- colonies in supplemented cultures [2]: completely devoid of any colonies
- inhibition at 20 µg/mL (human hepatoma cells; 24 h, day 1, versus control flasks (negative = more cells than control)): -44%
- inhibition at 20 µg/mL (human hepatoma cells; 48 h, day 2, versus control flasks): 66%
- inhibition at 20 µg/mL (human hepatoma cells; 72 h, day 3, versus control flasks): 78%
- inhibition at 20 µg/mL (human hepatoma cells; 96 h, day 4 Run 1, versus control flasks): 87%
- inhibition at 20 µg/mL (human hepatoma cells; 96 h, day 4 Run 2, versus control flasks): 78%
- GLA supplemented cell number (x10^4) Mean (human hepatoma cells; day 1): 8,12 x10^4
- GLA supplemented cell number (x10^4) Mean (human hepatoma cells; day 2): 3,79 x10^4
- GLA supplemented cell number (x10^4) Mean (human hepatoma cells; day 3): 3,35 x10^4
- GLA supplemented cell number (x10^4) Mean (human hepatoma cells; day 4 Run 1): 2,96 x10^4
- GLA supplemented cell number (x10^4) Mean (human hepatoma cells; day 4 Run 2): 7,25 x10^4
- difference between growth rates of GLA supplemented and control cells (human hepatoma cells; single dose of GLA 20 µg/ml on day 1, after four days): no significant difference
- cell count (human hepatoma cells; single dose of GLA 20 µg/ml on day 1, counted after four days, n = 8, spread printed ± 4.85): 19.81 x 104
- percentage reduction of growth rate (-GR%) (BL6 mouse melanoma cells [8]): about 70%
- response of growth rate to GLA (MDBK bovine kidney cells): no apparent response

Structure (SMILES): CCCCC/C=C\C/C=C\CCCCCCCC(=O)O [LA, linoleic acid]
- proliferation suppressive action ([1]; 2 additions): definite proliferation suppressive action
- growth suppressive effect on the cancer cells in culture (summary) [2, 9]: some growth suppressive effect
- activity at 20 µg/mL ([2]; Homo sapiens, 504 h, 20 µg/ml of medium added every second day, read-out: growth achieved relative to control cultures): ~75%

Structure (SMILES): CCCCCCCC/C=C\CCCCCCCC(=O)O [OA, Oleic acid]
- densities of colonies ([1]; all levels of supplementation between 5 and 100µg/ml, 2 additions, compared with culture medium only): equal densities of colonies
- growth achieved relative to control cultures [2, 9]: about the same growth as control cultures
- growth suppressive effect on the cancer cells in culture (summary) [2, 9]: no suppressive effect

Structure (SMILES): CCCCC[C@H](O)/C=C/[C@H]1C=CC(=O)[C@@H]1CCCCCCC(=O)O [PGA1]
- growth suppressive effect on the cancer cells in culture (summary) [2, 10]: more pronounced growth suppressive effect

Structure (SMILES): CCCCC[C@H](O)/C=C/[C@H]1[C@H](O)CC(=O)[C@@H]1CCCCCCC(=O)O [PGE1, prostaglandin E 1]
- growth suppressive effect on the cancer cells in culture (summary) [2, 10]: more pronounced growth suppressive effect
- activity at 5 µg/mL ([2]; Homo sapiens, 504 h, 5 µg/ml of medium added every second day, read-out: growth achieved relative to control cultures): ~25%

Structure (SMILES): CCCCC[C@H](O)/C=C/[C@@H]1[C@@H](CCCCCCC(=O)O)[C@@H](O)C[C@H]1O [PGF1a]
- proliferation suppressive effect on human cancer cells (human cancer cells): no effect at all
- growth achieved relative to control cultures [2, 10]: about the same growth as the control cultures
- growth suppressive effect on the cancer cells in culture (summary) [2, 10]: no effect at all

Structure (SMILES): CCCCC[C@H](O)/C=C/[C@@H]1[C@@H](C/C=C\CCCC(=O)O)[C@@H](O)C[C@H]1O [PGF2a]
- proliferation suppressive effect on human cancer cells (human cancer cells): no effect at all
